Measurements taken from a melting point compilation (Tetko et al.; mined from patent text by program, amines drawn as free bases though some values may be those of a salt).

Row | Structure (SMILES) | melting point [°C]
1 | CC(C)(C)c1cc(C(=O)Nc2nc(C(=O)O)cs2)cc(C(C)(C)C)c1O | 291 to 293
2 | O=C1CCn2c(nc3ccccc32)N1 | > 260
3 | CCOC(=O)c1c(Cn2cncn2)nc2cc(OC)c(OC)cc2c1-c1ccc(OC)cc1 | 150 to 151
4 | CN(C(=O)COc1nnc(C(F)(F)F)s1)c1ccccc1 | 54
5 | Cc1sc(S(C)(=O)=O)nc1-c1ccccc1 | 114 to 115
6 | O=C(O)Cc1cc(Cl)c2c(c1)CCC(C(F)(F)F)N2 (configuration not stated) | 110 to 112
7 | CC1(C)C=C(c2cccnc2)c2cc(Br)ccc2OC1 | 116
8 | N#CCC(O)(c1ccc(Br)cc1)c1cccnc1 (configuration not stated) | 158 to 161
9 | COc1cc(C(=O)c2cn(C)c(-c3cn(C)c4ccccc34)n2)cc(OC)c1OC | 164 to 166
10 | CCN=C1NC(=O)C(OC)(c2nsc3ccc(-n4c(=O)cc(C(F)(F)F)n(C)c4=O)cc23)N1 (configuration not stated) | 205
11 | CON=CC1=CCCN(C(=O)OCC(N)=O)C1 | 131 to 133
12 | CSc1nc(N)c(C=O)s1 | 159 to 162
13 | CCCCCCOc1nc(O)ns1 | 61
14 | Cc1c(CC(=O)O)c2cc(C(=O)C(C)C)cc3c2n1CCC3 | 162
15 | O=C(O)c1cc(C(F)(F)F)cc(F)c1F | 94 to 96
16 | CC(C)(CF)C(O)C(Oc1ccc(Cl)cc1)n1cncn1 (configuration not stated) | 103 to 112
17 | Cn1c2ccccc2c(=O)c2cscc21 | 188 to 190
18 | Cc1[nH]c(=O)ccc1C(=O)c1ccc(C#N)cc1 | 172 to 175
19 | CN1CCN(C(=O)OC2c3ccc(C(F)(F)F)cc3C(=O)N2c2ccc3ccc(Cl)nc3n2)CC1 (configuration not stated) | 219
20 | COc1nc(C)cnc1NS(=O)(=O)c1ccccc1I | 136 to 138
21 | Cn1ccnc1Sc1ncc([N+](=O)[O-])n1C | 123 to 124
22 | CC(=O)N(Cc1cccnc1)c1ccc(Cl)cc1 | 64 to 65
23 | CN(C)[C@H]1CCC[C@H]1C(=O)O (relative stereo) | 82 to 84
24 | Nc1ccc2ccc(N3CCCC3)nc2n1 | 251
25 | COC(=O)CS(=O)(=O)c1ccc(OC)c(OC)c1 | 81 to 83
26 | c1cc2c3c(c[nH]c3c1)CC1NCCOC21 (configuration not stated) | 175 to 177
27 | Cc1cc(Br)cc(C(=O)Nc2ccc(F)cn2)n1 | 160
28 | O=c1[nH]nc(Cl)cc1Nc1ccncn1 | > 300
29 | CC1(C)C(C=C2CC2(F)F)C1C(=O)O (configuration not stated) | 78.9
30 | CS(=O)(=O)Oc1ccc2c(c1)C1(CCCC1)CO2 | 75 to 77

The next lines start with the values.

Row | melting point [°C] | Structure (SMILES)
31 | 264 to 266 | CC(=O)N1c2cc([N+](=O)[O-])ccc2[C@H]2Cc3ccc([N+](=O)[O-])cc3[C@H]21 (relative stereo)
32 | 136 to 138 | O=C(O)Cc1ccc(NC(=O)CCCCCNC(=O)OCc2ccccc2)cc1
33 | 120 | CNC(=O)C(=N[C@@H](C)c1ccccc1)C(C)(C)C
34 | 248 | CN(C)c1ccc(C(=O)Nc2ccc3ccc(Cl)nc3n2)cc1
35 | 285 to 286 | O=C(NC1CCCCCC1)c1cccc(C(=O)NC2CCCCCC2)c1
36 | 82 to 83 | Nn1ccc(C(=O)c2ccccc2)c1
37 | 192 to 193 | Cc1nc(N2CCN(Cc3ccc(F)cc3)C2=O)sc1C(=O)NCc1ccccc1
38 | 137 to 140 | Cc1ccc(S(=O)(=O)OC2CCN(S(=O)(=O)c3ccc(C)cc3)CC2)cc1
39 | 135 | CCOC(=O)C(=O)NNC(=O)c1cc2sc(C)c(N(C)S(=O)(=O)c3cccs3)c2[nH]1
40 | 214 to 217 | CCCc1ccc2c(C(=O)O)ccc(OC)c2n1
41 | 66 | CCOC(=O)CCC(=O)c1cc(-c2ccccc2)nc2ccccc12
42 | 108 | CCCCOC(=O)c1ccc2ccc(C=O)nc2c1OC(=O)C(C)(C)C
43 | 90 to 91 | CCOC(=O)[C@@]1(F)[C@@H]2CC=C(C(=O)OCc3ccccc3)[C@@H]21
44 | 190 to 192 | CCCCNC(=O)Nc1ccc(OCC2CC2)cc1C(=O)NCC1CCN(C(c2ccccc2)c2ccccc2)CC1
45 | 106 | CCCCCCCCCCCCCCCCCCNC(=O)c1ccc(OC(C)=O)cc1
46 | 110 to 115 | COc1ccc2c(c1)C=C(C(=O)N1CCN(C(=O)c3cc(OC)c(OC)c(OC)c3)CC1)CCO2
47 | 61.5 to 63 | FC1=COC(COCc2ccccc2)C(COCc2ccccc2)O1 (configuration not stated)
48 | 194 to 195 | CN(CC(=O)O)C(=O)CCc1cccc(-c2nc(=O)c3ccccc3s2)n1
49 | 73 to 75 | C(=Cc1ccc(-c2cnc(CSCCOc3ccccc3)o2)cc1)CN1CCCC1
50 | 125 | COc1ccc(CCNC(=O)Cc2ccc(OC)c(OC)c2)cc1OC
51 | 122 to 125 | COc1cc2ncc(C#N)c(Nc3ccc(F)c(Cl)c3)c2cc1NC(=O)C=CCN(CC(C)O)CC(C)O (configuration not stated)

Row | melting point [°C] | Structure (SMILES)
52 | 120 | CN1CCC(OC2c3cccc(-c4cccc(N)c4)c3CCn3cc(-c4ccccc4)nc32)CC1 (configuration not stated)
53 | 163 to 165 | N#Cc1cc(NC(=O)C2CCc3ccccc3C2)ccc1N1CCC(O)CC1 (configuration not stated)
54 | 88.1 | Cc1cc(C)cc(OC(=O)C(c2ccccc2)N2CCN(C3CCN(C(=O)c4cc(C(F)(F)F)cc(C(F)(F)F)c4)C(Cc4ccccc4)C3)CC2)c1 (configuration not stated)
55 | 167 | CCCCCCCCCCCCCCCCCCNC(=O)C(=O)NCCc1ccc(O)cc1
56 | 200 to 201 | CC(C)(C)OC(=O)N1CCC2(CC1)C(=O)N(CC(=O)O)CN2c1ccccc1
57 | 250 | CCOC(=O)CCC(=O)Nc1ccc(-c2c[nH]c(=O)cn2)cc1
58 | 63 to 66 | Cc1c(Cl)cccc1NCc1ccccc1Cl
59 | 110 | CC(C)(C)c1cccc(S(=O)(=O)n2c(C(O)c3ccc(C(=O)O)cc3)cc3cc(C(F)(F)F)ccc32)c1 (racemic)
60 | 56 to 67 | C=CCN1CC(OC(=O)c2ccccc2)CC1=O (configuration not stated)
61 | 68 to 97 | CC(=O)OC1CSC(Oc2cccc(-c3ccccn3)c2)C(OC(C)=O)C1OC(C)=O (configuration not stated)
62 | 182 to 184 | N#Cc1c(N2CCCCC2)cc(-c2ccc3ccccc3c2)c2c1C(=O)c1ccccc1-2
63 | 134 | COc1ccc2c(c1)C(=O)C(=Cc1ccccc1)O2
64 | 209 to 211 | COc1ccc(CN2C(=O)C3(COc4cc5c(cc43)OCCO5)c3ccccc32)cc1OC (configuration not stated)
65 | 118 to 120 | CC(C)CC(NC(=O)COc1cccc2ccccc12)C(=O)NC(Cc1ccccc1)C(=O)CSCc1ccco1 (configuration not stated)
66 | 197 to 199 | COC(=O)c1ccc(COc2cc3c(=O)n(-c4ccc(NC(=O)OC(C)(C)C)cc4)c(C(=O)OC)c(-c4cc(OC)c(OC)c(OC)c4)c3cc2OC)cc1
67 | 132 to 135 | CCOC(=O)Cc1cccc2c(-c3ccc(N(C)C)cc3)nccc12
68 | 124 | CCC(=O)N1CCC(CC(=O)N2CCC([C@H]3c4ncc(Br)cc4CCc4cc(Cl)cc(Br)c43)CC2)CC1
69 | 192 to 194 | OCCC(c1ccccc1)C(O)(c1ccccc1)c1ccc(O)cc1 (configuration not stated)
70 | 85 to 88 | O=C1c2ccccc2C(=O)N1OCCCC#Cc1ccc(F)cc1
71 | 99 to 101 | O=C1CCC(CO)N1C(=O)Nc1ccccc1 (configuration not stated)
72 | 127 to 128 | O=C(O)c1ccccc1NCCNc1ccccc1F
